For 62 molecules, melting point results are on record in a melting point compilation (Tetko et al.; mined from patent text by program, amines drawn as free bases though some values may be those of a salt).

What is called melting point is the temperature of the solid-liquid transition.

Molecules are shown by their SMILES.

Consider `O=C(O)COc1cccc2c1Cc1sc(SC(c3ccccc3)c3ccccc3)nc1-2`, for which the melting point lay within 224 to 225 °C.

`COC(=O)c1nc(Cl)c(F)c(NC(C)=O)c1Cl`: the melting point was in the range of 183 to 186 °C. The figure for `S=C(Cc1ccccc1)c1ccccc1` is 52 to 53 °C; for `O=C(NCc1ccc([N+](=O)[O-])cn1)C(c1ccccc1)c1ccccc1` it is 160 to 164 °C. The figure for `COC(=O)c1cccc(-c2nc(-c3ccc(C(F)(F)F)cc3)co2)c1` is 151 to 152 °C; for `CCCc1ccnc2c(=O)[nH]c(-c3cc([N+](=O)[O-])ccc3OCC)nc12` it is 257 to 259 °C. In the case of `O=C(O)C(=O)c1ccc(OCCOc2ccc3c(c2)CCCC3)cc1` it was 144 to 145 °C; in that of `CCc1nnc(-c2ccc(NC)cc2)n1-c1ccc(OC)cc1`, 198 °C; in that of `CSCc1nn(-c2c(Cl)cc(C(F)(F)F)cc2Cl)nc1C=NC(C#N)=C(N)C#N`, 237 to 239 °C. The molecule `Cc1cc(C)n(C)c(=O)c1C#N` registered a melting point of 202 to 205 °C. The figure for `O=C(c1ccc(O)c(O)c1)c1cccc(C(Cc2ccccc2)Cc2ccccc2)n1` is 141 to 143 °C; for `C#CCN1C(=O)COc2cc(F)c(-c3ncnc(C(F)(F)F)c3Cl)cc21` it is 158 to 159 °C; for `O=P(Oc1ccccc1O)(Oc1ccccc1O)c1ccccc1` it is 270 °C. The figure for `CCOC(=O)c1cn(-c2nc(NCc3ccc(OC)cc3)c(F)cc2F)c2c(Cl)c(F)c(F)cc2c1=O` is 197 to 200 °C.

Regarding `CN(C)C(=O)c1cncc([N+](=O)[O-])c1`, the melting point amounted to 65 °C. In the case of `O=C(O)CCC(=O)OCc1ccc(-c2nn(-c3ccc(Br)cc3)c3ccccc23)o1`, the melting point is 111 to 113 °C. The figure for `c1ccc(-c2cc3ccncc3[nH]2)cc1` is 222 to 224 °C; for `CCC1(O)C(C)=CC(=O)N1c1ccccc1` (configuration not stated) it is 97 to 100 °C; for `CCCCCCCCCCCCCCCCCc1nc(N)nc(N)n1` it is 114 to 116 °C. In the case of `CN1CCN(C2=Nc3ccccc3N3CCc4cccc2c43)CC1` it was 149 to 151 °C. In the case of `CSc1ccc2c(c1)CCN2C(=O)Nc1cccnc1` it was 160 to 162 °C. For the molecule `O=S1(=O)c2cccc3cccc(c23)N1CCCN1CCC(c2ccccc2)(c2ccccc2)CC1`, the melting point amounted to 168 °C. In the case of `COc1ccc(CNc2nc(SC)ncc2C(=O)OCc2ccccn2)cc1Cl` it was 117 to 118 °C; in that of `c1ccc(Nc2nc(-c3cn[nH]c3)c(N3CCCCC3)s2)nc1`, 238 °C; in that of `NS(=O)(=O)CCCSc1ccc2ncnn2n1`, 130 to 131 °C. In the case of `Cn1c(COc2ccc(CC(OCc3ccc(F)cc3)C(=O)O)cc2)nc2ccc(Sc3cc(C(C)(C)C)c(O)c(C(C)(C)C)c3)cc21` (configuration not stated) it was 40 to 46 °C; in that of `COc1cccc(-c2nc(N)nc(Nc3cccc([N+](=O)[O-])c3)n2)c1`, 197 °C; in that of `CSc1nc2[nH]c3c(c(=O)n2n1)SCCC3`, 314 to 318 °C.

Regarding `O=[N+]([O-])c1cnccc1N1CCc2ccccc21`, the melting point was in the range of 159 to 160 °C. The figure for `CCN1CC(=O)N(c2ccccc2C)C1=S` is 82 to 84 °C. In the case of `C1=Nc2c(cnn2-c2ccccc2)C2=N[C@@H](Cc3ccccc3)CN12`, the melting point was found to be 255 °C.

`Cc1ccc(-c2ncn(-c3ccc(OC(F)(F)C(F)(F)F)cc3)n2)cc1` came in with a melting point of 130 to 132 °C. In the case of `COC(=O)c1cn(S(=O)(=O)c2ccccc2)c2ncc([N+](=O)[O-])cc12` it was 195 to 196 °C; in that of `CCn1cc(C(=O)O)c(=O)c2cc(F)c(N3Cc4ccc(C(=O)OC)cc4C3)c(F)c21`, 264 to 267 °C.

Molecule `COc1cccc(OCCCc2cn(-c3ccc(C(F)(F)F)cn3)nc2C(C)C)c1CC(=O)O` had a melting point of 183 to 184 °C. The figure for `CC1(CSc2ccc(N)c([N+](=O)[O-])c2)CC1(Cl)Cl` (configuration not stated) is 76 to 78 °C. In the case of `O=C(NC[C@@H](C(=O)NO)N1CCOCC1)c1ccc(OCc2ccnc(-c3cccc(C(F)(F)F)c3)c2)cc1` it was 151 °C; in that of `Fc1ccc2[nH]cc(Cc3cccnc3)c2c1`, 109 to 112 °C.

Consider `CC(C(N)=S)(c1ccccc1)c1ccccc1`, for which the melting point fell in the range of 150 to 152 °C. The figure for `Cc1cc(NCCCCCCBr)ccc1O` is 144 to 146 °C. In the case of `N#Cc1c(N2CCN(C(=O)c3ccco3)CC2)c2cc(F)cnc2n(CC(=O)c2ccccc2)c1=O` it was 293 °C; in that of `COc1ccccc1CN1CCC(=O)C(C2c3ccccc3C=Cc3ccccc32)C1` (configuration not stated), 113 to 114 °C; in that of `NS(=O)(=O)c1cc(C(=O)O)cc(OCc2ccccc2)c1Cc1ccccc1`, 250 to 251 °C.

The molecule `C=CCOC1OC(C)C(OCc2ccccc2)C(OCc2ccccc2)C1OC1OC(C)C(OCc2ccccc2)C(OCc2ccccc2)C1O` (configuration not stated) came in with a melting point of 98 to 99 °C. In the case of `CCOCCOC(=O)Nc1c(C#N)cnn1-c1ccc(Cl)c(Cl)c1Cl` it was 122 to 124 °C; in that of `CC(C)(C)OC(=O)[C@@H](N)Cc1cc(I)c(O)c(I)c1`, 165 to 168 °C; in that of `N#Cc1ccc(NC(=O)c2cc3cccc(S(=O)(=O)c4ccccc4)c3[nH]2)c(-c2nnn[nH]2)c1`, 293 to 295 °C. In the case of `CC(C)C[C@H](NCc1ccc(C(C)(C)C)cc1)C(=O)N1CCN(C(c2ccc(F)cc2)c2ccc(F)cc2)CC1` it was 57 to 62 °C; in that of `COc1cc2c(c(-c3cccc(C)c3C)c1)OC(CN)C2` (configuration not stated), 129 to 130 °C; in that of `CC(=O)Nc1nc(Oc2ccccc2)nc2nc(-c3ccco3)nn12`, 168 to 170 °C.

On to `C=CCON(CCCCCCCCCCCCCCCCCC)CCCCCCCCCCCCCCCCCC`, for which the melting point was 60 to 62 °C. In the case of `CC(C)[C@H](NS(=O)(=O)c1ccc2c(c1)Sc1ccccc1O2)C(=O)O` it was 171 to 175 °C. In the case of `CCOC(Cc1ccc2oc(Cc3nc(-c4ccccc4)oc3C)cc2c1)C(N)=O` (configuration not stated) it was 165 to 168 °C; in that of `N#Cc1cccc(Cl)c1-c1[nH]c(=O)c(-c2ccccc2)cc1C(=O)O`, 279 °C; in that of `COc1ccc(C(=O)[C@H]2CCCN2C(=O)C(F)(F)F)cc1OC`, 121 to 123 °C. In the case of `O=C1N(Cc2ccc(-c3ccccc3C(F)(F)F)o2)c2ccccc2C12COc1cc3c(cc12)OCOC3` (configuration not stated) it was 124 to 126 °C; in that of `COC(=O)CCC(=O)c1ccc(NC(=O)C(C)C)c(N)c1`, 178 °C; in that of `CCC[C@H]1CC[C@H](c2ncc(C(=O)OCC)c(O)n2)CC1`, 156 to 157 °C. In the case of `O=C1N(Cc2ccc(Cl)cc2)c2ccc(Br)cc2C1(O)c1ccc2c(c1)OCO2` (configuration not stated), the melting point lay within 179 to 180 °C. The figure for `CC(=O)C1(O)CCC2C3CCC4=CC(=O)CCC4(C)C3C(Cl)CC21C` (configuration not stated) is 193 to 196 °C. In the case of `COC(=O)CCc1cc2cc(C(F)(F)F)ccc2n1S(=O)(=O)c1ccccc1` it was 81 to 83 °C; in that of `FC(F)(F)c1ccc(C=Nc2c3c(nc4ccccc24)CCCC3)cc1`, 203 to 205 °C.
